{"source": "patent EP0705601B1", "about": "“Anthraquinones containing solutions for parenteral administration” (LOMAPHARM Rudolf Lohmann GmbH KG Pharmazeutische Fabrik, priority 1994, dated 1996)", "key": {"[1]": {"experiment": "Increase of solubility with the solubilisers of the invention relative to purely aqueous phase", "format": "physicochemical", "conditions": "fold increase versus solubility in purely aqueous phase, with solubilisers I-III", "source_text": "Überraschenderweise wurde nun gefunden, daß die Löslichkeit der Anthrachinone durch den Einsatz von mindestens einem Lösungsvermittler ausgewählt aus • I. Polyethylenglykol-660-12-Hydroxystearat • II. Tetrahydrofurfurylalkoholpolyethylenglykolether • III. Wasserlösliche Beta- und Gamma-Cyclodextrinderivate, allein oder in Kombination mit anderen, physiologisch geeigneten, nichtwäßrigen Lösungsmitteln bzw. Lösungsvermittlern um mehr als das Hundertfache ihrer Löslichkeit in rein wäßriger Phase erhöht werden kann."}, "[2]": {"conditions": "water, Raumtemperatur, cited from earlier work"}, "[3]": {"conditions": "man; D. Lorenz et al. 1985; cited from earlier work"}}, "note": "Like-named read-outs stand apart in the source and are kept apart here."}
{"smiles": "O=C1c2ccccc2C(=O)c2c1ccc(O)c2O", "note": "[Alizarin]", "values": [{"measurement": "Erhöhung der Löslichkeit", "setting": "[1]", "value": "mehr als das Tausendfache"}, {"measurement": "Löslichkeit in Wasser", "setting": "[2]", "value": "ca. 2 µmol/l"}, {"measurement": "Löslichkeit in Wasser", "setting": "[2]; conversion of the µmol/l value", "value": "≈ 0,48 mg/l"}, {"measurement": "Halbwertzeit", "setting": "[3]", "value": "ca. 12 Std."}]}
